According to EP4309654A1, “INDOLE-3-CARBINOL IN COMBINATION WITH IBRUTINIB FOR THE TREATMENT OF B LYMPHOID NEOPLASMS” (Consejo Superior de Investigaciones Científicas (CSIC), priority 2022, dated 2024):

Experiments:
[1] = test system: different types of solid tumours; assay: Viability of different types of solid tumour cell lines; type: cell-based; details: HCC1954, A375P, HCT116, HT1080, pancreatic cancer lines 185 and 354
Description: We studied the effect of I3C alone or in combination with different drugs commonly used in the clinic for the targeted treatment of solid tumours of various origins. We used the ductal breast cancer line HCC1954 and the drug Lapatinib, the melanoma line A375P and the drug Vemurafenib, the colorectal cancer line HCT116 and the drug 5-fluorouracil, the sarcoma line HT1080 and the experimental drug ADC, and two primary pancreatic cancer lines 185 and 354 and the drug Abraxane. Results obtained (Fig. 11) shown that I3C has no effect on different types of solid tumours.

[2] = in blood; cited from earlier work

OCc1c[nH]c2ccccc12 [I3C, (1H-indol-3-yl)methanol]
effect on solid tumours (viability) [1]: no effect | bioavailability [2]: 22 µM
